Experimental findings from patent US6559099B1, “Methods for enhancing plant health, protecting plants from biotic and abiotic stress related injuries and enhancing the recovery of plants injured as a result of such stresses” (Wisconsin Alumni Research Foundation, priority 2000, dated 2003) are described below.

Where “and” joins values, the source holds several entries; their conditions need not be identical. Identical values can stand only once.

What all share (assay type): in vivo
Experiment [1] relates to Tomato Plants cv. H9144. Nature of the experiment: Protection of pesticide (Marathon, imidacloprid) injury and enhancement of recovery. As to conditions: 200 mg/L in 1% ethanol; 10 days after spraying (FIG. 3). The source says:
Marathon with active […] of imidacloprid (available from Olympic Chemical Co., PO Box K, Mainland, Pa.) is a pesticide used for controlling whitefly in plants. This is a systemic pesticide and is introduced to the plant via soil application. As the pesticide accumulates in the foliage the insects feeding on the plants are killed. Sometimes as this chemical accumulates in the plant it can result in phytotoxicity to the plant. To test this, tomato plants cv. […] (cultivar of Heinz Co.) were grown for two (2) months in 20 liter pots in a greenhouse. […] Many leaves lost chlorophyll and plants had poor shoot growth. Three weeks after the treatment of pesticide, […]18:1 or LPI (200 mg/L each) solution containing 1% ethanol were sprayed to the point that solution started to run off the leaves. Control plants were sprayed with distilled water containing 1% ethanol. The LPE solution was prepared by wetting 200 mg of LPE in 1 ml ethanol and then adding distilled water to make 1 liter of total volume. The LPE solution was then sonicated 1 minute before spraying.

The test system of experiment [2] is Tomato plants cv. H9478. Nature of the experiment: Protection of drought injury and enhancement of recovery. As for the experimental part:
Tomato plants cv. […] (cultivar of Heinz Co.) were grown in 20 liter pots and placed in a growth chamber maintained at 24/18° C. day/night temperatures and a 16 hour photoperiod with 400 μmol m^-2s^-1 of cool-white fluorescent lights. Two month-old plants were sprayed with either distilled water, […]) or LPE 18:1 (100 mg/L) before exposure to drought stress. Drought stress was given by withholding water for 2 days. The plants were sprayed once again with distilled water, […]) or LPE 18:1 (100 mg/L) right after water was given (alleviation of water stress). During drought stress, all water, […] 18:1-sprayed plants were severely wilted but regained turgor soon after water was given again.

Experiment [3] deals with 'Hazel' oat seeds. Nature of the experiment: Seedling vigour (root and shoot fresh weight) of 'Hazel' oats soaked in LPE or LPC. As to conditions: 10 ppm (each), incubated at 20° C.; for Root fresh wt per seedling / Shoot Fresh wt per seedling: soaked 30 minutes; for Root fresh wt per seedlings / Shoot Fresh wt per seedlings: soaked 2 hours. The source says: Values are mean±SE (4 replications). […] Values are mean±SE (4 replications).

The test system of experiment [4] is H.2350 field corn seeds. Briefly: Germination and seedling fresh weight of field corn seeds soaked in LPE solution. As to conditions: incubated at 25° C. for 8 days. As to the method:
H.2350 (Certified seed obtained from the Wisconsin Crop Improvement Association, Madison, Wis.) field corn seeds were soaked in LPE solution. Seeds were incubated at 25° C. for 8 days using the procedure described in Example 6. Four replications were conducted with 50 seeds in each replication.

For experiment [5], the system named is Tomato Plants cv. H9144. Briefly: Protection of chilling injury and enhancement of recovery, tomato seedlings. As to conditions: for Leaf Chlorophyll Mean ± SE / Leaf Phospholipids Mean ± SE / Leaf Water (fresh/dry wt ratio) Mean ± SE: measured 10 days after chilling. As for the experimental part: Tomato Plants cv. […] (cultivar of Heinz Co.) were grown in 20-liter pots containing […], Ohio) in a greenhouse which was supplied with additional tungsten light for a 16 hour photoperiod. […] Control leaf branch was sprayed with distilled water. The LPE solution was prepared by suspending 200 mg of crude […] (Avanti Polar Lipids, Inc., Alabaster, Ala.) in one liter of distilled water and then sonicating for 1 minute before spraying. After 4 days of chilling treatment at 4/2° C. day/night temperatures and a 16 hour photoperiod with 200 μmol m^-2 s^-1 fluorescent light intensity, plants were transferred to a growth chamber maintained at 24/18° C. day/night temperatures and a 16 hour photoperiod with 400 μmol m^-2 s^-1 of fluorescent light intensity. […] When measured 10 days after chilling, LPE-sprayed leaf tissues, either before or after chilling, had higher levels of water, chlorophyll, and phospholipid content than water-sprayed control (see Table 1 below). […] Chilling and recovery conditions were the same as in Example 1a above.

Experiment [6] deals with Sweet corn seeds (SS Jubilee). Nature of the experiment: Germination and seedling fresh mass of sweet corn seeds soaked in LPE solution. The conditions noted are these: soaked 2 hours. As to the method: Sweet corn seeds (SS Jubilee, certified seed obtained from the Wisconsin Crop Improvement Association, Madison Wis.) were soaked for 2 hours in LPE solution. Seeds were removed from the LPE solution and 50 seeds were placed on 2 paper towels and wetted with distilled water (5 seeds in one row) then seeds were covered with another wet paper towel. The three towels with the seeds were rolled, placed in a metal container and incubated at 25° C. The container was covered with plastic and the cover secured with a rubber band. The germination percentage was tested after 4 and 7 days. The procedure was as specified by the Association of Official Seed Analysts. Four replications were conducted with 50 seeds in each replication. […] Furthermore, LPE treated seeds produced larger (root and shoot) seedlings. SS Jubilee sweet corn seeds were soaked for 2 hours in LPE solution. Seeds were incubated using the same procedure described in Example 6. The germination percentage was tested after 4 and 7 days. Four replications were conducted with 50 seeds in each replication. […] On a commercial level, this means that LPE treatment of the seeds will insure more plants in a given field and that LPE treated seeds will produce plants having a head start.

Experiment [7] relates to castor bean (Ricinus communis L. cv Hale).
Experiment [8] deals with 'Hazel' oats. Nature of the experiment: Germination of 'Hazel' oats soaked in LPE or LPC. The conditions noted are these: 10 ppm (each), incubated at 20° C. As for the experimental part:
‘Hazel’ oats (Certified seed obtained from the Wisconsin Crop Improvement Association, Madison, Wis.) were soaked in LPE or LPC. Seeds were soaked for either 30 minutes or 2 hours at room temperature (23±2° C.) and then incubated at 20° C. using the official seed germination test rules (Rules for testing seeds are published by the Association of Official Seed Analysts) for testing seeds. Four replications were conducted with 100 seeds in each replication. […] Moreover, a greater proportion of the seeds treated with these lipids, germinated earlier. Thus, this seed treating increased both the rate and amount of seed germination.

In experiment [9] the test system is Cucumber (Cucumis sativus inbred line-WI2238) plants. Nature of the experiment: Protection of chilling injury and recovery, cucumber seedlings. As to conditions: 100 mg/L sprayed twice, 1 hour before and right after 2 days chilling. As to the method: Cucumber (Cucumis sativus inbred line-WI2238) plants were grown in 4 liter plastic pots containing a sterilized mixture of peat:sand:composited soil:field soil (1:1:1:1, v/v) at a greenhouse. Growing conditions and other details were same as in Example 1a. […] After 2 days of chilling treatment at the same conditions as in Example 1a , plants were transferred to a growth chamber maintained at 23±2° C. temperature and 16 hour photoperiod with 400 μmol […] of fluorescent light intensity.

[10] abbreviates: 100 mg/L sprayed before drought and right after water was given, after 2 or 3 days.
The mark [11] stands for this setting: 200 mg/L LPEegg spray, 4 days chilling at 4/2° C., vs water-sprayed control.
The mark [12] stands for this setting: 200 mg/L sprayed 1 hour before chilling.
The mark [13] stands for this setting: 200 mg/L sprayed right after chilling.

Consider `CCCCCCCC/C=C\CCCCCCCC(=O)OCC(O)COP(=O)(O)OCCN` (stereo not drawn) [LPE 18:1], for which the “shoot growth after pesticide injury” value in experiment [1] is “vigorous shoot growth”. Also, the “shoot growth after drought stress” value is reported as “vigorous shoot growth” in [2] (setting [10]) and “vigorous shoot growth” in experiment [2] (100 mg/L, 7 days after drought stress was alleviated (FIG. 2)).

For Lysophosphatidyl choline [LPC], in experiment [3], the “Root fresh wt per seedling” value was 40.4 ± 2.7 mg, the “Shoot Fresh wt per seedling” value is recorded as 108.9 ± 4.5 mg, the “Root fresh wt per seedlings” value was 48.9 ± 0.7 mg and the “Shoot Fresh wt per seedlings” value was determined as 130.4 ± 2.7 mg.

Turning to lysophosphatidylethanolamine [LPE], in experiment [4] (5 ppm), the “% Germination” value is 97.0 ± 0.6%; the “Fresh Weight Root (primary + secondary), average mass produced from 50 seeds” value was determined as 14.2 ± 0.8 g; the “Fresh Weight Shoot, average mass produced from 50 seeds” value was 16.2 ± 0.6 g. Also, in experiment [4] (10 ppm), the “% Germination” value turned out to be 98.5 ± 1.0%; the “Fresh Weight Root (primary + secondary), average mass produced from 50 seeds” value is 13.6 ± 0.3 g; the “Fresh Weight Shoot, average mass produced from 50 seeds” value was 15.6 ± 0.7 g. Moreover, the “protection from chilling injury” value in experiment [5] (100 mg/L LPEegg sprayed 1 hour before chilling, vs water-sprayed and non-sprayed controls) was “most effective in protecting the plant from chilling injury”. Moreover, in experiment [5] (setting [11]), the “chilling damage to the leaves” value was “mitigation of chilling damage to the leaves” and the “shoot meristem growth after chilling” value is on record as “enhanced shoot meristem growth”. For the same molecule, in [5] (setting [12]), the “Leaf Chlorophyll Mean ± SE” value turned out to be 21.6 ± 0.1 mg/g dry wt, the “Leaf Phospholipids Mean ± SE” value is reported as 25.9 ± 0.3 nmol/mg dry wt and the “Leaf Water (fresh/dry wt ratio) Mean ± SE” value is 10.1 ± 0.4 fresh/dry wt ratio. Further, in experiment [5] (setting [13]), the “Leaf Chlorophyll Mean ± SE” value is on record as 28.2 ± 4.0 mg/g dry wt, the “Leaf Phospholipids Mean ± SE” value turned out to be 25.7 ± 1.0 nmol/mg dry wt and the “Leaf Water (fresh/dry wt ratio) Mean ± SE” value was 10.81 ± 0.5 fresh/dry wt ratio. For the same molecule, in [3], the “Root fresh wt per seedling” value came to 48.4 ± 1.9 mg, the “Shoot Fresh wt per seedling” value is given as 124.1 ± 3.0 mg, the “Root fresh wt per seedlings” value came to 46.4 ± 0.6 mg and the “Shoot Fresh wt per seedlings” value is 121.1 ± 2.5 mg. For the same molecule, in [6] (Table 2, 5 ppm), the “Average Fresh Mass Produced from 50 seeds, Root (primary + secondary)” value is on record as 1.6 ± 0.4 g and the “Average Fresh Mass Produced from 50 seeds, Shoot” value came to 10.0 ± 0.5 g. In experiment [6] (Table 2, 5 ppm, 25° C.), the “% Germination After 4 days” value was 61.0 ± 1.7% and the “% Germination After 7 days” value worked out at 70.0 ± 2.2%. In [6] (Table 2, 10 ppm), the “Average Fresh Mass Produced from 50 seeds, Root (primary + secondary)” value stood at 1.3 ± 0.1 g and the “Average Fresh Mass Produced from 50 seeds, Shoot” value stood at 8.7 ± 0.2 g. Also, in [6] (Table 2, 10 ppm, 25° C.), the “% Germination After 4 days” value stood at 69.0 ± 2.6% and the “% Germination After 7 days” value was 71.5 ± 2.8%. In experiment [6] (Table 2, 20 ppm), the “Average Fresh Mass Produced from 50 seeds, Root (primary + secondary)” value stood at 1.2 ± 0.0 g and the “Average Fresh Mass Produced from 50 seeds, Shoot” value was 10.4 ± 0.4 g. For the same molecule, in experiment [6] (Table 2, 20 ppm, 25° C.), the “% Germination After 4 days” value is reported as 60.0 ± 3.6% and the “% Germination After 7 days” value was 65.0 ± 1.3%. Also, in [6] (Table 3 (Example 7), 1 ppm), the “% Germination After 4 days” value turned out to be 68.5 ± 4.0%; the “% Germination After 7 days” value was found to be 76.5 ± 4.6%; the “Average Fresh Mass Produced from 50 seeds, Root (primary + secondary)” value was determined as 0.9 ± 0.1 g; the “Average Fresh Mass Produced from 50 seeds, Shoot” value is listed as 9.1 ± 0.8 g. In experiment [6] (Table 3 (Example 7), 10 ppm), the “% Germination After 4 days” value is 61.5 ± 5.7% and 73.8 ± 2.8%; the “% Germination After 7 days” value was 68.0 ± 3.4% and 78.0 ± 2.3%; the “Average Fresh Mass Produced from 50 seeds, Root (primary + secondary)” value was 0.8 ± 0.0 g and 1.1 ± 0.1 g; the “Average Fresh Mass Produced from 50 seeds, Shoot” value is 7.6 ± 0.3 g and 10.4 ± 0.4 g. In experiment [7] (after 1 day), the “leaf curling and browning after wounding” value was “much less leaf curling and browning”. In addition, in experiment [7] (in vivo), the “leaf turgidity after wounding” value was “remained turgid for several days”; the wound-healing symptoms result is “leaf damaged areas were healed and gained green color”. In addition, in experiment [8] (soaked 30 min), the “% Germination (Mean ± SE) After 4 days” value is 87.7 ± 0.9% and 82.5 ± 1.7%; the “% Germination (Mean ± SE) After 10 days” value was 91.3 ± 0.7% and 90.8 ± 1.1%. Moreover, in experiment [8] (soaked 2 hours), the “% Germination (Mean ± SE) After 4 days” value was 82.8 ± 1.1% and 82.0 ± 1.2%; the “% Germination (Mean ± SE) After 10 days” value was 94.3 ± 1.3% and 93.5 ± 1.0%. Moreover, the “chilling damage in leaves” value in experiment [9] is given as “severe chilling damage in leaves”. Also, the “shoot growth after chilling” value in [9] (after 7 days) was “vigorous shoot growth”. The “shoot growth after drought stress” value in experiment [2] (setting [10]) is “vigorous shoot growth”.

Consider lysophosphatidylinositol [LPI], for which the “shoot growth after pesticide injury” value in experiment [1] is listed as “vigorous shoot growth”.
